Experimental data reported in patent US20040171086A1, “Selective modulation of TLR-mediated biological activity” (3M Innovative Properties Company, priority 2003, published 2004).

How the values were obtained:
TLR7 = target: T1, TLR7 (Homo sapiens, UniProt Q9NYK1); assay: NFκB-luciferase reporter assay in HEK293 cells transfected with human TLR7 (HEK293-TLR7); assay type: cell-based; design: expressed in transfected cells; host or cells: HEK293 (ATCC CRL-1573), pIRES vector, G-418 selected; details: HEK293-TLR7, 10 μM IRM, 16 hours
T1 sequence (Q9NYK1 27-1049): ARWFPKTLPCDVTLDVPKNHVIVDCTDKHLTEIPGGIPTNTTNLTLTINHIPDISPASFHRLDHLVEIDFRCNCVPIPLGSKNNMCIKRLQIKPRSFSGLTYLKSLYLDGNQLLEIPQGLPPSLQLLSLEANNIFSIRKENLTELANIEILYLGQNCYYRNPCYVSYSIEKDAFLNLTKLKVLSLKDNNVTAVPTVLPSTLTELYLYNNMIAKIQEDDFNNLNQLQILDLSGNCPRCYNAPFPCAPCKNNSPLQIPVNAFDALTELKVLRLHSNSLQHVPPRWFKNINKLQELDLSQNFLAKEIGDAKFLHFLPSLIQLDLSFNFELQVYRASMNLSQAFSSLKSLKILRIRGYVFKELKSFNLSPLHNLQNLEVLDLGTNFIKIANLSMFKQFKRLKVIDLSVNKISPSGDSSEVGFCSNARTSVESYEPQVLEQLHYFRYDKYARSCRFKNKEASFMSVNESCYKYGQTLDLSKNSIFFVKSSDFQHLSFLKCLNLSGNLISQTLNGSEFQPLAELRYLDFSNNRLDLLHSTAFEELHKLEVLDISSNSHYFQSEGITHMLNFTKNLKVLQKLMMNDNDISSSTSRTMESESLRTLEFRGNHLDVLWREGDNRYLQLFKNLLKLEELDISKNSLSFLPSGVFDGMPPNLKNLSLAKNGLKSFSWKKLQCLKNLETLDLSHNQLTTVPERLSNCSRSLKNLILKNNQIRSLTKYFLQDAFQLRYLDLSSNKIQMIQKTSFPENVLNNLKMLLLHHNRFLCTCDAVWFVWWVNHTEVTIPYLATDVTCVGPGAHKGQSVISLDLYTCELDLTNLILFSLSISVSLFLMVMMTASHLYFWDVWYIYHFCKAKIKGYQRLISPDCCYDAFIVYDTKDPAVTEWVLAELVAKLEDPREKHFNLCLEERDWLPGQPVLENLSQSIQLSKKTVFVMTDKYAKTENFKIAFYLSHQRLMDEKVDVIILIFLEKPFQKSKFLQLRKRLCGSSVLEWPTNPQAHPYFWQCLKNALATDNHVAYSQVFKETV
Protocol: (§1) A compound was identified as increasing cellular activity mediated through a given TLR if it induced at least a two-fold increase in NFκB-induced luciferase signal compared to the control.
(§2) HEK293 medium was prepared from 90% Minimum Essential Medium (MEM) with 2 mM L-glutamine and Earle's Balanced Salt Solution (Invitrogen Corp., Rockville, Md.) adjusted to contain 1.5 g/L sodium bicarbonate, 0.1 mM non-essential amino acids, and 1.0 mM sodium pyruvate; 10% heat-inactivated fetal calf serum. HEK293 cells were cultured by incubating cells in HEK293 medium overnight at 37° C., 8% CO2.
(§3) The cells were co-transfected with (1) pIRES (BD Biosciences Clontech, Palo Alto, Calif.) either (a) unmodified (HEK293-vector), (b) containing an expressible human TLR7 gene (HEK293-TLR7), or (c) containing an expressible human TLR8 gene (HEK293-TLR8), and (2) NFκB-luc reporter (Stratagene, La Jolla, Calif.) in a 10:1 ratio with Fugene 6 transfection reagent (Roche Diagnostics Corp., Indianapolis, Ind.) following the manufacturer's instructions.
(§4) The cells were stimulated with 1 μL of IRM compounds at 1 mM in DMSO (final IRM concentration of 10 μM) or 1 μL DMSO as a control. The plates were then incubated an additional 16 hours at 37° C., 5% CO2. The luciferase signal was read using the LucLite kit (Packard Instrument Co., Meriden, Conn.). Luminescence was measured on an LMAX luminometer (Molecular Devices Corp., Sunnyvale, Calif.).

human TLR8 = target: T2, human TLR8 (Homo sapiens, UniProt Q9NR97); assay: NFκB-luciferase reporter assay in HEK293 cells transfected with human TLR8 (HEK293-TLR8); assay type: cell-based; details: HEK293-TLR8, 10 μM IRM, 16 hours
T2 construct: expressed in transfected cells; host or cells: HEK293 (ATCC CRL-1573), pIRES vector, G-418 selected
T2 sequence (Q9NR97 27-1041): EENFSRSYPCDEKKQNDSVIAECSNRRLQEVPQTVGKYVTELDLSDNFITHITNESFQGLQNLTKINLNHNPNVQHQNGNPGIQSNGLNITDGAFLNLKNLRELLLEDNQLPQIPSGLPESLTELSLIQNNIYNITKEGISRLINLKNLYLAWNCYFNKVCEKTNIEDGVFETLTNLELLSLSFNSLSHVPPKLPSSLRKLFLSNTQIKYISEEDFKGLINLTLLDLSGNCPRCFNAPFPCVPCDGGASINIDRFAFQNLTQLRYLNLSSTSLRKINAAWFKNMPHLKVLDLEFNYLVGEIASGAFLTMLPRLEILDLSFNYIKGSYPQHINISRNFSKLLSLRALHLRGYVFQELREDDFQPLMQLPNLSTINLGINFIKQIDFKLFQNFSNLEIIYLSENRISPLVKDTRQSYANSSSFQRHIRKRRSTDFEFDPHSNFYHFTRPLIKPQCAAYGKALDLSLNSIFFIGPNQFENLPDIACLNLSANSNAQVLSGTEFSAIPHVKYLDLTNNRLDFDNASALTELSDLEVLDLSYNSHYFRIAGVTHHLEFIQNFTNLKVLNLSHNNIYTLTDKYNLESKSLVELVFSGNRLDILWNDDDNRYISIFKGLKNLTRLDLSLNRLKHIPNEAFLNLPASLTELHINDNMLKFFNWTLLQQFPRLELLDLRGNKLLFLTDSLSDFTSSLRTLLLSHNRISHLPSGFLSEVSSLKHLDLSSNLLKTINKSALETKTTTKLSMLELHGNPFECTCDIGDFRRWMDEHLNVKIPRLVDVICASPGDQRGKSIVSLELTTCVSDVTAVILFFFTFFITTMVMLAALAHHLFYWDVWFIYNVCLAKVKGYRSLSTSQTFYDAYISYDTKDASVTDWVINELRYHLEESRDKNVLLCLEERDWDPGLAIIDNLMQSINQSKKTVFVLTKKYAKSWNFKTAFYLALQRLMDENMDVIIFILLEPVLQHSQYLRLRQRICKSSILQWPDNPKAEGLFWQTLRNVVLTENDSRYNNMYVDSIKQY
Protocol: as §1, §2, §3, §4

Row | SMILES | TLR7: fold increase of NFκB-induced luciferase signal compared to a DMSO control (TLR7) | TLR8: fold increase of NFκB-induced luciferase signal compared to a DMSO control (human TLR8)
1 | CCCCc1nc2c(N)nc(C)c(C)c2n1CC(C)(C)O [IRM18, 4-amino-2-butyl-α,α,6,7-tetramethyl-1H-imidazo[4,5-c]pyridine-1-ethanol] | 5.06 fold increase | 2.77 fold increase
2 | CCc1nc2c(N)nc3ccccc3c2n1CCOCCNC(=O)Nc1ccccc1 [IRM13, N-{2-[2-(4-amino-2-ethyl-1H-imidazo[4,5-c]quinolin-1-yl)ethoxy]ethyl}-N′-phenylurea] | 0.86 fold increase | 6.25 fold increase
3 | CCCCc1nc2c(N)nc3ccccc3c2n1CCNS(=O)(=O)CCC [IRM12, N^1-[2-(4-amino-2-butyl-1H-imidazo[4,5-c]quinolin-1-yl)ethyl]-1-propanesulfonamide] | 1.16 fold increase | 8.84 fold increase
4 | COCCc1nc2c(N)nc3ccccc3c2n1CC(C)(C)O [IRM17, 4-amino-α,α-dimethyl-2-methoxyethyl-1H-imidazo[4,5-c]quinoline-1-ethanol] | 2.53 fold increase | 10.18 fold increase
5 | CCCCc1nc2c(N)nc3cccnc3c2n1CCNC(=O)C(N)CC(C)C (stereo not drawn) [IRM10, N^1-[2-(4-amino-2-butyl-1H-imidazo[4,5-c][1,5]naphthyridin-1-yl)ethyl]-2-amino-4-methylpentanamide] | 0.64 fold increase | 9.24 fold increase
6 | CCc1nc2c(N)nc3ccccc3c2n1CCCCS(=O)(=O)c1cc(Cl)cc(Cl)c1 [IRM20, 1-{4-[(3,5-dichlorophenyl)sulfonyl]butyl}-2-ethyl-1H-imidazo[4,5-c]quinolin-4-amine] | 4.22 fold increase | 6.04 fold increase
7 | CCOCc1nc2c(N)nc3ccccc3c2n1CCNC(=O)Nc1cccc(C#N)c1 [IRM15, N-{2-[4-amino-2-(ethoxymethyl)-1H-imidazo[4,5-c]quinolin-1-yl]ethyl}-N′-(3-cyanophenyl)urea] | 0.92 fold increase | 5.52 fold increase
8 | Cc1nc2c(N)nc3ccccc3c2n1CCOCc1ccccc1 [IRM4, 1-[2-(benzyloxy)ethyl]-2-methyl-1H-imidazo[4,5-c]quinolin-4-amine] | 4.98 fold increase | 1.06 fold increase
9 | COCCc1nc2c(N)nc3ccccc3c2n1CCCCCCCCNC(=O)Nc1ccccc1 [IRM5, N-{8-[4-amino-2-(2-methoxyethyl)-1H-imidazo[4,5-c]quinolin-1-yl]octyl}-N′-phenylurea] | 3.38 fold increase | 0.94 fold increase
10 | Nc1nc2ccccc2c2c1ncn2CCCCNC(=O)c1ccccc1Oc1ccccc1 [IRM11, N^1-[4-(4-amino-1H-imidazo[4,5-c]quinolin-1-yl)butyl]-2-phenoxybenzamide] | 1.44 fold increase | 10.69 fold increase
11 | COCCc1nc2c(N)nc3ccccc3c2n1CCCNS(=O)(=O)c1ccc(C)cc1 [IRM7, N-{3-[4-amino-2-(2-methoxyethyl)-1H-imidazo[4,5-c]quinolin-1-yl]propyl}-4-methylbenzenesulfonamide] | 6.22 fold increase | 0.86 fold increase
12 | Cc1nc2c(N)nc3ccccc3c2n1CCOCCCc1cccnc1 [IRM2, 2-methyl-1-[2-(3-pyridin-3-ylpropoxy)ethyl]-1H-imidazo[4,5-c]quinolin-4-amine] | 4.16 fold increase | 0.91 fold increase
